Experimental findings from US20170196859A1, “PHARMACEUTICAL COMPOSITION COMPRISING PYRAZINE CARBOXAMIDE COMPOUND AS ACTIVE INGREDIENT” (Astellas Pharma Inc., priority 2014, published 2017) are described below.

This experiment has as its system OCI-Ly10 subcutaneous xenograft. Briefly: Anti-tumor evaluation in OCI-Ly10 subcutaneous xenograft mouse model. In kind it is in vivo. Particulars: for tumor volume after 14 days: control 188 to 520 mm^3. The protocol: The human diffuse large B-cell lymphoma cell line OCI-Ly10 cells were subcutaneously implanted to a dorsal part of an immunodeficient mouse (NOD.CB 17-Prkdc scid/J, male, 4-week-old (Charles River Laboratories Japan, Inc.)) to prepare an OCI-Ly10 subcutaneous xenograft mouse model. To mice which were divided based on the tumor volumes, 0.5% methylcellulose (control group: 10 mL/kg/day, QD, po (n=4)) or the test compound B (test compound B-administered group: 30 or 100 mg/kg/day in 0.5% methylcellulose suspension, QD, po (n=4)) were administered. The change in the tumor volume was evaluated over time.

For the compound `C=CC(=O)N1CC[C@@H](Oc2nc(Nc3ccc(N4CCC(N5CCN(C)CC5)CC4)cc3)c(C(N)=O)nc2CC)C1` [test compound B, 5-{[(3R)-1-acryloylpyrrolidin-3-yl]oxy}-6-ethyl-3-({4-[4-(4-methylpiperazin-1-yl)piperidin-1-yl]phenyl}amino)pyrazine-2-carboxamide monomethanesulfonate], the “tumor volume after 14 days” value runs as follows: (30 mg/kg/day QD po, 190 mm^3 at start of administration) 50 mm^3; (100 mg/kg/day QD po, 184 mm^3 at start of administration) 22 mm^3. The “antitumor activity in OCI-Ly10 xenograft mouse model” value (summary statement, 30 and 100 mg/kg/day) is reported as “remarkable antitumor activity with regression in a dose-dependent manner”.
